Laboratory results from patent US10213451B2, “Methods and compounds for modulating the secretion or expression of adhesion proteins or angiopoietins of cells” (PACIFIC ARROW LIMITED, priority 2004, dated 2019).
Converted amounts (≈) assume the structure as drawn. “Also recorded” adds a separate entry of the source.

What was measured:
[1] = tested on: Fibronectin secretion from bladder carcinoma cells (HTB-9); assay: Fibronectin secretion (Western blot), HTB-9 cells; format: cell-based, human; settings: 10 ug/ml
TOV-21G = assay: MTT assay TOV-21G; format: cell-based; settings: Homo sapiens, TOV21G, Clear cell
Method: (§1) Majority of ovarian cancers arise from the surface epithelium of ovary, most of them belong to the histological subtypes of clear cell and serous carcinoma. We obtained 10 more human ovarian carcinoma cell-lines of these histological subtypes for these studies. The inhibition activity exerted by Xanifolia-Y was determined with MTT assay.

[2] = tested on: ES2 (human ovarian cancer) cells transplanted intra-peritoneally; assay: Animal study, survival of mice with intra-peritoneal ES2 tumor; format: in vivo, Athymic Nu/Nu mice; settings: for survival of tumor bearing mice: 2.5 mg/kg; for median survival time: i.p. 2.5 mg/kg
Method: Methods • Athymic Nu/Nu mice are divided into three groups (A, B and C) with four animals in each group. • On day 0, mice of group A and B were transplanted intra-peritoneally with ES2 (human ovarian cancer) cells. • On day 1, mice from B and C groups received drug (Xanifolia-Y, by i.p. route at dose of 5 mg/kg) • On days 2 to 4, and 7 to 11, B and C groups animals received daily drug administration of Xanifolia-Y, by i.p. route at dose of 2.5 mg/kg. • Group A mice have no drug-treatment.
Methods • Athymic Nu/Nu mice were divided into three groups (A, D and E) with four animals in each group. • On day 0, all mice were transplanted intra-peritoneally with ES2 (human ovarian cancer) cells. • Group A mice received no drug-treatment. • Group D: From day 4, mice received a daily drug administration of Xanifolia-Y, via i.p. route for 9 days at dose of 2.5 mg/kg. • Group E: From day 10, mice received daily drug administration of Xanifolia-Y, via i.p. route for 10 days at dose of 2.5 mg/kg. […]

[3] = tested on: red blood cells (hemolysis); assay: Hemolytic activity; format: cell-based, human; settings: human red blood cells (isolated from whole blood); human red blood cells, FIG. 5A
Method: (§2) Methods: • Human whole blood was obtained from the Houston Gulf Coast Blood Center. • Red blood cells were isolated by the following method: Human blood (in EDTA) was diluted 1:1 with PBS, underlay with 4 mL of Histopaque-1077 (SIGMA) and was centrifuged at 400 g for 30 min. • Red blood cells (RBC) were collected and washed three times with PBS. • 10% suspensions of RBC were prepared with PBS before use. • 50 μL of RBC suspension was added to 2 mL of saponins with different concentration. • The suspension was mixed by vortexing then left to sit at room temperature for 60 minutes. • The suspension was centrifuged at 3000 rpm for 5 min. Absorbance of the supernatant was measured at 540 nm.

OVCA 433 = assay: MTT assay OVCA 433; format: cell-based; settings: Homo sapiens, OVCA433; OVCA 433, Serous
Method: as §1

[4] = tested on: ES2 cells inoculated into peritoneal cavity; assay: Nodule formation in peritoneal cavity, ES2; format: in vivo, nu/nu mice; settings: ES2, 0.25 mg/kg i.p. daily 5 days per week for two-three weeks
Source text: The relationship between the nodule formation and timelines during tumor progression are established. Usually, 4 to 6 nodules are formed during the entire period of tumor progression in this system (Lander Jr., et al., 2005). We start the drug-treatment at times equivalent to 20% and 50% of full tumor progression. At these times, the number of nodule is less and the size (weight) of the nodules is smaller. At the end of the drug-treatment, animals are euthanized and number of tumor nodules is determined and the tumor size (mass) is weighted.
Animals: 40 nu/nu mice are used per experiment.
2 groups of mice (20 each) (i) Drug-treatment start at time equivalent to 20% of full tumor progression (or on 4 days after tumor inoculation) (ii) Drug-treatment starts at time equivalent to 50% of full tumor progression (or on 10 days after tumor inoculation). On the day of starting drug-treatment, half of the animals (10) will be scarified and the number and weight of nodules will measured.
Drug-Treatments: Animals are administered daily for 5 days per week for two—three weeks. Dose: 0.25 mg/kg, through i.p. route.

[5] = tested on: ES2 cells attached to flasks; assay: Inhibition of cell adhesion to flasks, ES2; format: cell-based
Method: (§3) Methods and Results. ES2 or Hey8A cells were plated in T25 flasks with medium containing 5 ug/ml of Xanifolia-Y. Cultures were incubated for 5 hours. Attached cells were removed from flasks by trypsinization and the amounts were counted. Compare to no drug controls, 86±4% of ES2 cells and 67±8% of Hey8A cells were found attached to flasks under this condition. At 5 ug/ml Xanifolia-Y, over 90% of unattached cells are alive as determined by the trypan Blue exclusion assay and by their ability to re-attach to flasks when plating in medium without Xanifolia-Y. However, with 10 ug/ml Xanifolia-Y, less than 40% of cells attached to flasks and many of them are dead cells.
as §3, with “Results:” for “Results.”

human red blood cells = assay: Hemolytic activity; format: cell-based; settings: FIG. 3D
Method: as §2

[6] = drug-treatment started on day 10 after tumor inoculation
[7] = drug-treatment starting on day 4 after tumor inoculation

Row | SMILES | % inhibition of Fibronectin secretion [1] | % inhibition of Fibronectin secretion ([1]; listed as Y3) [%] | inhibition at 10 µg/mL ([1]; Homo sapiens) [%] | IC50 (TOV-21G) [nM] | survival of mice without tumor given drug ([2]; Group C: no tumor, i.p. 5 mg/kg day 1, 2.5 mg/kg days 2-4 and 7-11) | survival of tumor bearing mice ([2]; Group D: i.p. 2.5 mg/kg daily, 9 times from day 4) | survival of tumor bearing mice ([2]; Group E: i.p. 2.5 mg/kg daily, 10 times from day 10) | extension of life span [2, 6] [%] | extension of life span [2, 7] [%] | median survival time [2, 6] [days] | median survival time [2, 7] [days] | IC50 at 60 min [3] [µg/mL] | IC50 (OVCA 433) [µM] | numbers of tumor nodules [4] | size of tumor [4] | cells attached to flasks, compared to no drug controls ([5]; ES2 cells, 5 ug/ml, 5 hours) [%] | unattached cells alive (trypan Blue exclusion, re-attachment) ([5]; ES2 or Hey8A cells, 5 ug/ml) | cells attached to flasks ([5]; ES2 or Hey8A cells, 10 ug/ml) | hemolytic activity of hydrolysed products of compound Y (human red blood cells)
1 | C/C=C(/C)C(=O)O[C@H]1[C@H](OC(=O)/C(C)=C\C)[C@@]2(CO)C(CC1(C)C)C1=CCC3[C@@]4(C)CC[C@H](O[C@@H]5OC(C(=O)O)[C@@H](O)C(O[C@@H]6O[C@@H](CO)C(O)C6O)C5O[C@@H]5OC(CO)[C@H](O)C(O)C5O)C(C)(C)C4CC[C@@]3(C)[C@]1(C)[C@@H](O)[C@H]2O (stereo partly drawn) [Xanifolia-Y, 3-O-[β-D-galactopyranosyl (1→2)]-α-L-arabinofuranosy (1→3)-β-D-glucuronopyranosyl-21,22-O-diangeloyl-3β, 15α, 16α, 21β, 22α, 28-hexahydroxyolean-12-ene] | about 50% | 51 | 50 | 2200 | over 50 days | all survived; also recorded: no death in 50 days | half the number of mice survived; also recorded: half of the mice survive in 50 days | 29 | 141 | 31 | 58 | 1 (≈ 0.876 µM) | 8.8 | less | smaller | 86±4 | over 90% | less than 40% | –
2 | C/C=C(/C)C(=O)O[C@H]1[C@H](OC(=O)/C(C)=C\C)[C@@]2(CO)C(CC1(C)C)C1=CCC3[C@@]4(C)CC[C@H](O)C(C)(C)C4CC[C@@]3(C)[C@]1(C)[C@@H](O)[C@H]2O (stereo partly shown) [ACH-Y] | – | – | – | – | – | – | – | – | – | – | – | – | – | – | – | – | – | – | reduced hemolytic activity
